Test results from patent publication US20220127258A1, “AROMATIC RING OR HETEROAROMATIC RING COMPOUNDS, PREPARATION METHOD THEREFOR AND MEDICAL USE THEREOF” (The National Institutes of Pharmaceutical R&D Co., Ltd., priority 2019, published 2022).

Key:
FXR = molecular target: T1, FXR (Homo sapiens, UniProt Q96RI1); test: FXR agonistic activity, luciferase assay; format: cell-based; conditions: luc2P-GAL4-HEK293 cells transfected with pBIND-FXR, 24 hours
T1 sequence (Q96RI1 262-486 limits assumed): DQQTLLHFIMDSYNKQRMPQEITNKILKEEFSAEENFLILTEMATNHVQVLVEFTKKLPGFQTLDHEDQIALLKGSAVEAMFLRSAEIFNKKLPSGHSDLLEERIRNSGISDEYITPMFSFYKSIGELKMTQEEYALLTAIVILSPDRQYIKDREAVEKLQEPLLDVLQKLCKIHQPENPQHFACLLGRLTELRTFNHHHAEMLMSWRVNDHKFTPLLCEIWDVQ
Method: The FXR agonistic activity of the compound of the present invention was evaluated using the luciferase assay.
The experimental process comprises the follows. The luc2P-GAL4-HEK293 stably transfected cell line (the cell line was established by transfecting pGL4.35 plasmid with HEK293 cells which was then subjected to Hygromycin B screening. The cell contained 9×GAL4 UAS and firefly luciferase reporter gene. The ligand-activated LBD-GAL4 DBD fusion protein can enter the nucleus to bind to 9×GAL4 UAS and activate the transcription of the downstream luciferase reporter gene) was transferred to a 96-well plate with […] per well. pBIND-FXR (Which was constructed by inserting FXR-LBD into pFN26A-BIND hRluc-neo Flexi® vector. The plasmid was 7.5 kb in size, Amp resistant, contained FXR-LBD, and can express FXR-LBD and GAL4 DBD fusion proteins) was transfected using X-tremeGENE HP transfection reagent. The ratio of plasmid to transfection reagent was 1 μg: 2 μl. The specific amount was 100 ng of plasmid and 0.2 μl of X-tremeGENE HP transfection reagent per well. The test compounds (the highest concentration of each compound was 30 μM, 3-fold dilution, a total of 10 concentrations) were added to induce the expression of luciferase. After 24 hours, the 96-well plate containing the test cells was taken out from the incubator, and placed at room temperature. Dual-Glo® Luciferase Reagent with the volume equal to the volume of the medium in the well (80 μl/well) was added to each well and mixed well. The plate was incubated at room temperature for 20 minutes to allow the cells to be fully lysed. All the liquid in the plate was transferred to a 96-well microtiter plate, and the firefly luciferin value was measured with a multi-function plate reader (manufacturer: Bio Tek (USA); model: Synergy4). Dual-Glo® a Stop & Glo® Reagent with the volume equal to the volume of the initial medium (80 μl/well) was added to each well and mixed well. The plate was incubated at room temperature for 10 minutes, and the renilla luciferin value was measured. The measurement order of renilla fluorescence should be the same as that of firefly fluorescence. Curve fitting and EC50 calculation were conducted using GraphPad Prism 5 software by nonlinear regression method. The fitting equation is: Y=Bottom+(Top−Bottom)/(1+10^((Log EC50−X)*HillSlope)), wherein EC50 refers to the semi-effective concentration, Top refers to the maximum effect, Bottom refers to the blank effect, and HillSlope refers to the slope.

[1] = Visual inspection of solubility of test sample in extracellular fluid; format: physicochemical; conditions: 0.3 μM to 30 μM solutions in extracellular fluid pH 7.4, from DMSO stock
Method: Extracellular fluid: 140 mM NaCl, 3.5 mM KCl, 1 mM MgCl2, 2 mM CaCl2, 10 mM glucose, 10 mM HEPES, 1.25 mM NaH2PO4, pH=7.4 (adjusted by NaOH). The stock solution of the compound of Example 8 of the present invention (30.26 mM solution in DMSO) was successively diluted with 10 mL of extracellular fluid to obtain 0.3 μM, 1 μM, 3 μM, […], and 30 μM solutions. […] 10 mg of Cisapride was dissolved in 2066.29 μL of dimethyl sulfoxide (DMSO) to obtain a 10 mM stock solution. The Cisapride stock solution was successively diluted with dimethyl sulfoxide (DMSO) to obtain a total of 4 concentrations of 1 μM, 10 μM, 100 μM and 1 mM. Before the test, 10 μL of the diluent at each concentration was added to 10 mL of extracellular fluid to ensure that the DMSO concentration was 0.1%. The final working concentration of Cisapride was 1 nM, 10 nM, 100 nM and 1 μM.

Structure (SMILES) | EC50 (FXR) | solubility of the test sample, visually inspected [1]
O=C(O)c1ccc(-c2nnc(N3[C@@H]4CC[C@H]3C[C@@H](OCc3c(-c5c(Cl)cccc5Cl)noc3C3CC3)C4)o2)s1 [Example 11] | 100 to 500 nM | –
Cc1cc(C(=O)O)ccc1-c1nnc(N2[C@@H]3CC[C@H]2C[C@@H](OCc2c(-c4c(Cl)cccc4Cl)noc2C2CC2)C3)o1 [Example 14] | < 25 nM | –
O=C(O)c1ccc(-c2nnc(N3[C@@H]4CC[C@H]3C[C@@H](OCc3c(-c5ccccc5OC(F)(F)F)noc3C3CC3)C4)o2)cc1 [Example 22, 4-(5-((1R,3r,5S)-3-((5-cyclopropyl-3-(2-(trifluoromethoxy)phenyl)isoxazol-4-yl)methoxy)-8-azabicyclo[3.2.1]octan-8-yl)-1,3,4-oxadiazol-2-yl)benzoic acid] | < 25 nM | –
O=C(O)c1ccc(-c2nnc(N3[C@@H]4CC[C@H]3C[C@@H](OCc3c(-c5c(Cl)cccc5Cl)noc3C3CC3)C4)o2)cc1 [Example 8, 4-(5-((1R,3r,5S)-3-((5-cyclopropyl-3-(2,6-dichlorophenyl)isoxazol-4-yl)methoxy)-8-azabicyclo[3.2.1]octan-8-yl)-1,3,4-oxadiazol-2-yl)benzoic acid] | < 25 nM | completely dissolved without visible precipitation
